From ChEMBL document CHEMBL5291721, “A preclinical secondary pharmacology resource illuminates target-adverse drug reaction associations of marketed drugs” (Nat Commun, 2023)

Columns and labels:
[1] = biological target: T1, Type-1 angiotensin II receptor (Homo sapiens, UniProt P30556)
T1 sequence (P30556 whole entry): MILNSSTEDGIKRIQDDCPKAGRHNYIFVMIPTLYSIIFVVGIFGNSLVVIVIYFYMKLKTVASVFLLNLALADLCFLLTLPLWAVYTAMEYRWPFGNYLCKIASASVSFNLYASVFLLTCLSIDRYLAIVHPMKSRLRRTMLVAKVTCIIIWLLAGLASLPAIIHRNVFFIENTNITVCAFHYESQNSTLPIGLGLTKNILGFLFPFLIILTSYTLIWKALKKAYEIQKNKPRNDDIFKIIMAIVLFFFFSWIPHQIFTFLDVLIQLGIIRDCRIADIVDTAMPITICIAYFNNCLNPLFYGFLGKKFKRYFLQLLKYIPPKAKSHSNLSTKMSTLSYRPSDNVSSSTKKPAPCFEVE

[2] = biological target: Motilin receptor (Homo sapiens, UniProt O43193)
[3] = biological target: T2, Alpha-2A adrenergic receptor (Homo sapiens, UniProt P08913); assay type: functional, cell-based
T2 sequence (P08913 whole entry): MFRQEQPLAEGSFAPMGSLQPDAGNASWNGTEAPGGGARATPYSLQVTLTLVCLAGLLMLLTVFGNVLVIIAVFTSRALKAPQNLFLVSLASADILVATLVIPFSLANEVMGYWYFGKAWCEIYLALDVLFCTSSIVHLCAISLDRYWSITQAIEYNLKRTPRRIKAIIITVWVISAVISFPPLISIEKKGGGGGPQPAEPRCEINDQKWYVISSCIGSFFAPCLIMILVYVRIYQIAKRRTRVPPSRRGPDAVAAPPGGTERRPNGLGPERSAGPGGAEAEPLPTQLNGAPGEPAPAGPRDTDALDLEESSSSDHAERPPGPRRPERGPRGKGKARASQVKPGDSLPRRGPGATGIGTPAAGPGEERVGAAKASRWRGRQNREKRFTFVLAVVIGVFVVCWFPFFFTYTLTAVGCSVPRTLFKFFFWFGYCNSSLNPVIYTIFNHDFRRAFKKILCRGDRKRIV

[4] = biological target: D(3) dopamine receptor (Homo sapiens, UniProt P35462)
[5] = biological target: T2, Alpha-2A adrenergic receptor; assay type: functional, cell-based; remark: listed apart in the source
[6] = biological target: T3, Prostaglandin G/H synthase 1 (Rattus norvegicus, UniProt Q63921); assay type: functional
T3 sequence (Q63921 whole entry): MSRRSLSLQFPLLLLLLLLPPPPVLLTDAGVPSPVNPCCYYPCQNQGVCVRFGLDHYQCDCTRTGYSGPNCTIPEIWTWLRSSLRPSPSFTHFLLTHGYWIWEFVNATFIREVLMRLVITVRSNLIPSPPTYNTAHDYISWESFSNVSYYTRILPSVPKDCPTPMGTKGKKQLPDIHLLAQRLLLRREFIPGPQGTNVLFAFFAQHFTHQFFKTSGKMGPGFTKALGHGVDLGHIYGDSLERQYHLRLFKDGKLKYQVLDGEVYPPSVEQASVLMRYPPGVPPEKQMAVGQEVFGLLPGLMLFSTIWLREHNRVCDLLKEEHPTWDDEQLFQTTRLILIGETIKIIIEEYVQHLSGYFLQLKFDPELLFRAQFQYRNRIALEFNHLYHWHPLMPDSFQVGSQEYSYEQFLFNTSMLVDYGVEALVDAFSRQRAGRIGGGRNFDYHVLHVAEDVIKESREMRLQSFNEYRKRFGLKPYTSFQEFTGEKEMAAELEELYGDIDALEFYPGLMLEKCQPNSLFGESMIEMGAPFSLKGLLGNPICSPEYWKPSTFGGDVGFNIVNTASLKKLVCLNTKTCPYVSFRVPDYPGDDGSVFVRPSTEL

[7] = biological target: Gamma-aminobutyric acid receptor subunit alpha-1 (Rattus norvegicus, UniProt P62813); assay type: functional
[8] = biological target: 5-hydroxytryptamine receptor 2B (Homo sapiens, UniProt P41595); assay type: functional, cell-based
Note: assay procedure not described here.

Gamma-aminobutyric acid receptor subunit alpha-1, sequence (P62813 whole entry): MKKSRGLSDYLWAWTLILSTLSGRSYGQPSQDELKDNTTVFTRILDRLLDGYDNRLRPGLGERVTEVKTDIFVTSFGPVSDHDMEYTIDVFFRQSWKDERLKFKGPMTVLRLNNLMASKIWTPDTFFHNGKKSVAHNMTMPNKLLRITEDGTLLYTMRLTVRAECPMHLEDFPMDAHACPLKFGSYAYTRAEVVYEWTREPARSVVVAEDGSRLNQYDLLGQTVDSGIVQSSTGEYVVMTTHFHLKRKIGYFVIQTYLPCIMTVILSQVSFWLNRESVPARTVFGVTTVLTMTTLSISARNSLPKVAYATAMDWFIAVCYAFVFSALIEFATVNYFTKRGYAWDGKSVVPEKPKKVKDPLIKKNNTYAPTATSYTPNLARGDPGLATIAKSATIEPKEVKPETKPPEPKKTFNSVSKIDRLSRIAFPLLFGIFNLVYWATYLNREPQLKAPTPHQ
Motilin receptor, sequence (O43193 whole entry): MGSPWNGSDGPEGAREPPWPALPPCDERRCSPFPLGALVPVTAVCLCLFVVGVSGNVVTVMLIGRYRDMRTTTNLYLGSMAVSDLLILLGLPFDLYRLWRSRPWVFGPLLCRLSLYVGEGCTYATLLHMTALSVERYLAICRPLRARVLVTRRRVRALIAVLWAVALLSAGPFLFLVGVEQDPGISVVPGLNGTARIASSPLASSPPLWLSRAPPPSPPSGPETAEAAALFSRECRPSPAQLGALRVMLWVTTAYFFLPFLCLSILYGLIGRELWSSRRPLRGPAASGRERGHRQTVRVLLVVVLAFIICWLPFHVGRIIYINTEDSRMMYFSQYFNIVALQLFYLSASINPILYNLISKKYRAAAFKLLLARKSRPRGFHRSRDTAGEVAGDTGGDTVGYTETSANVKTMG
5-hydroxytryptamine receptor 2B, sequence (P41595 whole entry): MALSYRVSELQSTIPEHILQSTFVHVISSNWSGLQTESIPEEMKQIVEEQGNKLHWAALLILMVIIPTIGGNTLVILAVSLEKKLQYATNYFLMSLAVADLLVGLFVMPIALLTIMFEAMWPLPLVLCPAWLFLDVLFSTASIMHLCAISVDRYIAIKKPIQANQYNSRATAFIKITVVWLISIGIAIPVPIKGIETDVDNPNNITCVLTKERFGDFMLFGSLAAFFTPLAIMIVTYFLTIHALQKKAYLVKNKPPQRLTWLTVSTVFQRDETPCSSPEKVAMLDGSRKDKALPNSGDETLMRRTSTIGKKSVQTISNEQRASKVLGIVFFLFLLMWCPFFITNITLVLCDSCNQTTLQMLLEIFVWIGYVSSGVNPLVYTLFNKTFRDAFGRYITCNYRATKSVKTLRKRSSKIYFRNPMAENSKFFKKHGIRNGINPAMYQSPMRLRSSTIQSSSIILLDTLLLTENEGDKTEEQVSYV
D(3) dopamine receptor, sequence (P35462 whole entry): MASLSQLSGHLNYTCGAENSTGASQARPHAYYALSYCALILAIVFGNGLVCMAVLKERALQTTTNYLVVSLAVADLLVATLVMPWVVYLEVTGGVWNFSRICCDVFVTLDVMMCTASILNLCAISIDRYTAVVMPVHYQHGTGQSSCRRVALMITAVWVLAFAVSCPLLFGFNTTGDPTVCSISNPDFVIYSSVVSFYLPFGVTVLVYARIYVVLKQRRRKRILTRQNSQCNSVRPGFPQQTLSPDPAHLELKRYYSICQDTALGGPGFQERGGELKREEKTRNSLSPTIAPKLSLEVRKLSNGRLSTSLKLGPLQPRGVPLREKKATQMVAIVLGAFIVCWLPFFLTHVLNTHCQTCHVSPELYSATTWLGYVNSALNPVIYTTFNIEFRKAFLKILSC

Structure (SMILES)	AC50 [1] [µM]	AC50 [2] [µM]	AC50 [3] [µM]	AC50 [4] [µM]	AC50 [5] [µM]	AC50 [6] [µM]	AC50 [7] [µM]	AC50 [8] [µM]
C[C@]12CC[C@H](O)CC1=CC[C@@H]1[C@@H]2CC[C@]2(C)C(c3cccnc3)=CC[C@@H]12 [ABIRATERONE]	> 30	> 10	> 10	> 30	> 10	> 30	> 10	> 10
CC(=O)OCC[N+](C)(C)C [ACETYLCHOLINE]	> 30	> 30	> 10	> 30	> 10	> 30	> 10	> 10
CN(C)C(=O)Oc1cc(OC(=O)N(C)C)cc(C(O)CNC(C)(C)C)c1 (stereo not drawn) [BAMBUTEROL]	> 30	> 30	–	–	–	> 30	–	–
C[C@H]1C[C@H]2[C@@H]3CCC4=CC(=O)C=C[C@]4(C)[C@@]3(Cl)[C@@H](O)C[C@]2(C)[C@@]1(O)C(=O)CO [BECLOMETHASONE]	> 30	> 10	–	> 10	–	> 30	> 10	–
CO[C@@]1(NC(=O)CSCC#N)C(=O)N2C(C(=O)O)=C(CSc3nnnn3C)CS[C@@H]21 [CEFMETAZOLE]	–	–	> 30	> 30	> 30	–	> 30	> 30
CO/N=C(\C(=O)N[C@@H]1C(=O)N2C(C(=O)[O-])=C(C[n+]3cccc4c3CCC4)CS[C@H]12)c1csc(N)n1 [CEFPIROME]	–	–	> 30	> 30	> 30	–	> 30	> 30
NS(=O)(=O)c1cc(C2(O)NC(=O)c3ccccc32)ccc1Cl (stereo not drawn) [CHLORTHALIDONE]	> 10	> 10	> 10	> 30	> 10	> 10	> 10	> 10
CC[C@H]1OC(=O)[C@H](C)[C@@H](O[C@H]2C[C@@](C)(OC)[C@@H](O)[C@H](C)O2)[C@H](C)[C@@H](O[C@@H]2O[C@H](C)C[C@H](N(C)C)[C@H]2O)[C@](C)(OC)C[C@@H](C)C(=O)[C@H](C)[C@@H](O)[C@]1(C)O [CLARITHROMYCIN]	> 30	> 30	> 30	–	> 30	> 30	–	> 30
C[C@@H]1CCC[C@H](C)N1NC(=O)c1ccc(Cl)c(S(N)(=O)=O)c1 [CLOPAMIDE]	> 30	> 30	> 30	> 30	> 30	> 30	> 30	> 30
COc1ccc2c(c1)[C@]13CCCC[C@@H]1[C@H](C2)N(C)CC3 [DEXTROMETHORPHAN]	> 30	> 10	> 10	> 30	> 10	> 30	> 10	> 10
O=c1oc2ccccc2c(O)c1Cc1c(O)c2ccccc2oc1=O [DICUMAROL]	> 10	> 10	> 10	> 30	> 10	> 30	> 10	> 10
CCn1cc(C(=O)O)c(=O)c2cc(F)c(N3CCNCC3)nc21 [ENOXACIN]	> 30	> 10	> 10	> 10	> 10	> 30	> 10	> 10
O=C(O)CSCC(=O)NC1CCSC1=O (stereo not drawn) [ERDOSTEINE]	> 30	> 30	> 30	> 30	> 30	> 30	> 30	> 30
COc1cccc(N(C)C(=S)Oc2ccc3c(c2)CCCC3)n1 [LIRANAFTATE]	> 30	> 30	> 30	> 30	> 30	> 30	> 30	> 30
C#C[C@]1(O)CC[C@H]2[C@@H]3CCc4cc(OC)ccc4[C@H]3CC[C@@]21C [MESTRANOL]	> 10	> 10	> 10	> 30	> 10	> 10	> 10	> 10
N=C(N)c1ccc2cc(OC(=O)c3ccc(N=C(N)N)cc3)ccc2c1 [NAFAMOSTAT]	> 30	27	> 30	4.6	> 30	> 30	> 30	> 30
CNC(=O)Oc1ccc2c(c1)[C@]1(C)CCN(C)[C@@H]1N2C [PHYSOSTIGMINE]	> 30	> 30	> 30	> 30	> 30	> 30	> 30	> 30
O=C(O)c1cc(O)c2c3nc4ccccc4oc-3cc(=O)c2n1 [PIRENOXINE]	> 30	> 30	> 30	1.6	> 30	> 30	> 30	> 30
NS(=O)(=O)c1cc(C(=O)O)cc(N2CCCC2)c1Oc1ccccc1 [PIRETANIDE]	> 30	> 30	> 30	> 30	> 30	> 30	> 30	> 30
CNCCCC1c2ccccc2C=Cc2ccccc21 [PROTRIPTYLINE]	> 10	> 10	> 10	0.85	–	> 10	> 10	> 10
COCCCOc1ccnc(C[S+]([O-])c2nc3ccccc3[nH]2)c1C (stereo not drawn) [RABEPRAZOLE]	> 30	> 10	> 10	> 10	> 10	> 30	> 10	> 10
CC(C)=CCOc1ccc(/C=C/C(=O)c2ccc(OCC=C(C)C)cc2OCC(=O)O)cc1 [SOFALCONE]	7.5	> 30	> 30	> 30	> 30	> 30	> 30	> 30
O=C(CCCN1CCC2(CC1)C(=O)NCN2c1ccccc1)c1ccc(F)cc1 [SPIPERONE]	> 30	> 30	4.5	–	0.98	> 30	> 30	5.21
CCSc1ccc2c(c1)N(CCCN1CCN(C)CC1)c1ccccc1S2 [THIETHYLPERAZINE]	–	–	–	–	–	> 30	–	–
CN(C)c1cc(NC(=O)CNC(C)(C)C)c(O)c2c1C[C@H]1C[C@H]3[C@H](N(C)C)C(O)=C(C(N)=O)C(=O)[C@@]3(O)C(O)=C1C2=O [TIGECYCLINE]	> 30	> 30	> 30	> 30	> 30	0.16	> 30	> 30
OCCN1CCN(CC/C=C2/c3ccccc3Sc3ccc(Cl)cc32)CC1 [ZUCLOPENTHIXOL]	> 30	> 10	> 10	0.046	7.3	> 10	> 10	> 10
